# Reference: publication PMC7729925, “Selective hepatitis B and D virus entry inhibitors from the group of pentacyclic lupane-type betulin-derived triterpenoids” (Scientific Reports, 2020)
# Key:
# HBV/HDV = tested on: HBV/HDV; design: method as in PMID 15650187; details: cited from earlier work
# HDV = assay: in vitro HDV infection of NTCP-HepG2 cells; assay type: cell-based; details: co-incubation with 0.5 µM, set to 0% infection rate
# Procedure: At day 9 post infection, cells were fixed and an immunostaining against the HDAg was performed, as a marker of HDV infection. The number of infected cells per well was determined by fluorescence microscopy. NTCP-HepG2 cells incubated without inhibitor were used as control (set to 100% infection rate). Infection experiments in the presence of 0.5 µM myr-preS1_2-48 peptide served as control for the 0% infection rate. Scale bars: 100 µm. Data represent means ± SEM of three independent experiments each with triplicate determinations (n = 9). […] Data were combined from two independent experiments, each with quadruplicate determinations (n = 8). (h) Cell viability was determined with an LDH cytotoxicity assay. HepG2 cells treated with HGM w/o test compound were used as positive control and lysed cells as negative control.
# For infection experiments NTCP-HepG2 cells were cultured in 96-well plates in Hepatocyte Growth Medium (HGM) consisting of William’s E Medium (Thermo Fisher Scientific) containing 2% bovine serum albumin (BSA, Roth), 2 mM L-Glutamin (Thermo Fisher Scientific), 100 µg/ml gentamicin (Thermo Fisher Scientific), 10 nM dexamethasone (Sigma-Aldrich), 1 mM sodium pyruvate (Thermo Fisher Scientific), 1 × Insulin-Transferrin-Selen (Thermo Fisher Scientific), 2% DMSO (Merck, Darmstadt, Germany), 4% polyethylene glycol (Sigma-Aldrich) and 2 µg/ml doxycycline (Sigma-Aldrich) as reported. Subsequently, cells were washed with DMEM and cultured in HGM supplemented with 2% DMSO, 2% BSA and 2 µg/ml doxycycline. […] HDV stock solved in 20 µl HGM per well was added for infection and cells were incubated for 6 h with final concentration of 700 genome equivalents/cell of HDV particles. HDV production was done in vitro as described before[55],[56]. RT-qPCR was performed to determine genome equivalents. Every three days medium was changed until cells were fixed at 9 days post infection with 3% paraformaldehyde (Sigma-Aldrich) in PBS, for 30 min at room temperature (RT). Cells were permeabilized with 0.2% Triton X 100 (Roth) in PBS for 30 min at RT, and blocked by incubation with 5% bovine serum albumin (Roth) in PBS, for 30 min at RT. Then, cells were immunostained with purified human anti-HDV-positive serum at 37 °C for 1 h (1:400 dilution). Goat anti-human IgG secondary antibody coupled to Alexa Fluor fluorophore (1:400 dilution, Thermo Fisher Scientific) was added for 1 h at 37 °C for detection of Hepatitis Delta antigen (HDAg) as described before.
smiles,measurement,setting,value
"CCCCCCCCCCCCCC(=O)NCC(=O)N[C@@H](CCC(N)=O)C(=O)N[C@@H](CC(N)=O)C(=O)N[C@@H](CC(C)C)C(=O)N[C@@H](CO)C(=O)N[C@H](C(=O)N[C@@H](CO)C(=O)N[C@@H](CC(N)=O)C(=O)N1CCC[C@H]1C(=O)N[C@@H](CC(C)C)C(=O)NCC(=O)N[C@@H](Cc1ccccc1)C(=O)N[C@@H](Cc1ccccc1)C(=O)N1CCC[C@H]1C(=O)N[C@@H](CC(=O)O)C(=O)N[C@@H](Cc1c[nH]cn1)C(=O)N[C@@H](CCC(N)=O)C(=O)N[C@@H](CC(C)C)C(=O)N[C@@H](CC(=O)O)C(=O)N1CCC[C@H]1C(=O)N[C@@H](C)C(=O)N[C@@H](Cc1ccccc1)C(=O)N[C@@H](CCCNC(=N)N)C(=O)N[C@@H](C)C(=O)N[C@@H](CC(N)=O)C(=O)N[C@H](C(=O)N[C@@H](C)C(=O)N[C@@H](CC(N)=O)C(=O)N1CCC[C@H]1C(=O)N[C@@H](CC(=O)O)C(=O)N[C@@H](Cc1c[nH]c2ccccc12)C(=O)N[C@@H](CC(=O)O)C(=O)N[C@@H](Cc1ccccc1)C(=O)N[C@@H](CC(N)=O)C(=O)N1CCC[C@H]1C(=O)N[C@@H](CC(N)=O)C(=O)N[C@@H](CCCCN)C(=O)N[C@@H](CC(=O)O)C(=O)N[C@H](C(=O)N[C@@H](Cc1c[nH]c2ccccc12)C(=O)N1CCC[C@H]1C(=O)N[C@@H](CC(=O)O)C(=O)N[C@@H](C)C(=O)N[C@@H](CC(N)=O)C(=O)N[C@@H](CCCCN)C(=O)N[C@H](C(=O)NCC(N)=O)C(C)C)[C@@H](C)O)[C@@H](C)O)[C@@H](C)O [myr-preS1_2-48 lipopeptide, reference compound]",IC50 of in vitro HBV/HDV infection,HBV/HDV,low nanomolar range
same,in vitro HDV infection with peptide control,HDV,completely abolished infection
